Reference: US7144901B2, “Oxadiazole derivatives and drugs containing these derivatives as the active ingredient” (ONO Pharmaceutical Co.,Ltd., priority 1999, dated 2006)

Assays:
Type in all cases: biochemical
cathepsin L = cathepsin L (Homo sapiens, UniProt P07711); assay: Measurement of cathepsin L inhibitory activity
Procedure: (iv) Measurement of Cathepsin L Inhibitory Activity
5 μL of Synthesized substrate (carbobenzoxy-L-phenylalanyl-L-arguine-4-methyl-chromanyl-7-amide or L-prolyl-L-phenylalanyl-L-arguinine-4-methyl-chromanyl-7-amide) solution and 5 μL of cysteine protease inhibitor solution of several concentrations, 80 μL of cathepsin L enzyme reaction buffer (400 mmol/L acetic acid, 4 mmol/L EDTA, 8 mmol/L DTT were mixed to adjust to pH 5.5) and 10 μL of cathepsin L enzyme solution were mixed and the increase of fluorescence intensity was measured (λex (excitation wavelength)=355 nm, λem (fluorescence wavelength)=460 nm) when reacted at 37° C.

cathepsin B = cathepsin B (Homo sapiens, UniProt P07858); assay: Measurement of cathepsin B inhibitory activity
Procedure: (ii) Measurement of Cathepsin B Inhibitory Activity
10 μL of Synthesized substrate (carbobenzoxy-L-arginyl-L-arginine-4-methyl-chromanyl-7-amide or carbobenzoxy-L-phenylalanyl-L-arginine-4-methyl-chromanyl-7-amide) solution of several concentrations, 10 μL of cysteine protease inhibitor solution of several concentrations, 70 μL of cathepsin B enzyme reaction buffer (mixture of 400 mmol/L in acetic acid, 4 mmol/L EDTA, 8 mmol/L DDT to adjust to pH 5.5) and 10 μL of cathepsin B enzyme solution were mixed and the increase of fluorescence intensity was measured (λex (excitation wavelength)=355 nm, λem (fluorescence wavelength)=460 nm) when reacted at 37° C.

cathepsin S = cathepsin S (Homo sapiens, UniProt P25774); assay: Measurement of cathepsin S inhibitory activity
Procedure: (iii) Measurement of Cathepsin S Inhibitory Activity
10 μL of synthesized substrate (carbobenzoxy-L-leucyl-L-leucyl-L-arguinine-4-methyl-chromanyl-7-amide) solution and 5 μL of cysteine protease inhibitor solution of several concentrations, 75 μL of cathepsin S enzyme reaction buffer (100 mmol/L of sodium phosphate, 2 mmol/L of EDTA, 2 mmol/L of DTT were mixed to adjust to pH 6.5) and 10 μL of cathepsin S enzyme solution were mixed and the increase of fluorescence intensity was measured (λex (excitation wavelength)=355 nm, λem (fluorescence wavelength)=460 nm) when reacted at 37° C.

cathepsin K = target: T1, cathepsin K (Homo sapiens, UniProt P43235); assay: Measurement of cathepsin K inhibitory activity; conditions: Dixon plot, fluorogenic substrate, pH 5.5, 37° C.
T1 sequence (P43235 115-329): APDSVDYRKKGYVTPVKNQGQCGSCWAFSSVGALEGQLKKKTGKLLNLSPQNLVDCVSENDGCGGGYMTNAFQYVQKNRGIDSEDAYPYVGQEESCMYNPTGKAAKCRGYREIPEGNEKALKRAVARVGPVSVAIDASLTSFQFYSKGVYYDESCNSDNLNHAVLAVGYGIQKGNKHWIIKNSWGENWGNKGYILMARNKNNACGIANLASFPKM
Procedure: (i) Measurement of Cathepsin K Inhibitory Activity
65 μL of Cathepsin K enzyme reaction buffer (50 mmol/L of 2-(N-morpholino)ethanesulfonate, 2 mmol/L of ethylenediamine tetraacetate (EDTA) and 4 mmol/L of dithiothreitol (DTT) were mixed to adjust to pH 5.5), 5 μL of cysteine protease inhibitor solution of several concentrations, 20 μL of synthesized substrate (t-butyloxycarbonyl-L-alanyl-glycyl-L-prolyl-L-arginine-4-methyl-chromanyl-7-amide) solution of several concentrations and 10 μL of cathepsin K enzyme solution were mixed and the increase of fluorescence intensity when reacted at 37° C. was measured (λex (excitation wavelength)=355 nm, λem (fluorescence wavelength)=460 nm). As to the substrate and the compound of the present invention, enzyme reactions were carried out in combination of several appropriate concentrations and Dixon plotting was prepared, to define the absolute value of X-coordinate of the intersection point of the graph as Ki value.

Sequence of cathepsin L (P07711 114-333, species assumed): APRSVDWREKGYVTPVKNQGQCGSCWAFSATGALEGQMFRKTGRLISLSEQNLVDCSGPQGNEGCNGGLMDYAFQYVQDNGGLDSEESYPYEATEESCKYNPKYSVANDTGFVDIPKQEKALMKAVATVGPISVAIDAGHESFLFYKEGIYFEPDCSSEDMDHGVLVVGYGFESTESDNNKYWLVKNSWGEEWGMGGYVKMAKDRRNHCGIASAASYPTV
Sequence of cathepsin S (P25774 115-331, species assumed): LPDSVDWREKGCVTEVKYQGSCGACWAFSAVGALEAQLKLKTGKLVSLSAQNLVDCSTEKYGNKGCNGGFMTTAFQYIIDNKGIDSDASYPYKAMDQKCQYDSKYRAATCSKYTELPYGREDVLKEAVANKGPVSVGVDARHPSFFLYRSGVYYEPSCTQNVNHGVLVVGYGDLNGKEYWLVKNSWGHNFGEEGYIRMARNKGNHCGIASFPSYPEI

## CC(C)C[C@H](NC(=O)OCc1ccccc1)C(=O)N[C@@H](CC(C)C)C(=O)c1nn(CC2CCC2)c(=O)o1 [1 (21), (2S)-N-[(2S)-1-(3-cyclobutylmethyl-2-oxo-1,3,4-oxadiazolin-5-yl)-4-methyl-1-oxo-2-pentyl]-2-benzyloxycarbonylamino-4-methylpentanamide]
Cathepsin L
  inhibition at 1 µM: 92%

## CC(C)C[C@H](NC(=O)[C@@H]1CCCC[C@@H]1NC(=O)c1ccccc1)C(=O)c1nnc(SCc2ccccc2)o1 [3 (5), 1-[(1R,2S)-2-benzoylaminocyclohexyl]-N-[(2S)-1-(5-benzylthio-1,3,4-oxadiazol-2-yl)-4-methyl-1-oxo-2-pentyl]carboxamide]
Cathepsin B
  inhibition at 1 µM: 100%

## CSc1nnc(C(=O)[C@H](CCc2ccccc2)NC(=O)[C@@H]2CCCC[C@@H]2NC(=O)c2ccccc2)o1 [3 (7), 1-[(1R,2S)-2-benzoylaminocyclohexyl]-N-[(2S)-1-(5-methylthio-1,3,4-oxadiazol-2-yl)-1-oxo-4-phenyl-2-butyl]carboxamide]
Cathepsin S
  inhibition at 1 µM: 100%

## CC(C)C[C@H](NC(=O)OCc1ccccc1)C(=O)N[C@@H](CC(C)C)C(=O)c1nnc(SC(C)C)o1 [example 3]
Cathepsin K
  Ki: 1.3 nM
